In patent US20110237500A1, “CECROPIN-MAGAININ HYBRID PEPTIDES” (priority 2008, published 2011):

Columns and labels:
Format in all cases: cell-based
B. thailandensis E264 = system: B. thailandensis E264; parameters: key: —: No effect (i.e. no significant difference between control [culture with no peptide] and culture with peptide); *: ~1 log effect (i.e. culture with peptide that's growth was ~1 log less than control); **: 1-2 log effect; ***: 2-4 log effect; ****: >4 log effect; “”: “Immediate effect” (i.e. loss of growth by at least 1 log compared to control immediately on addition of peptide [T = 0])
[1] = system: Y. pseudotuberculosis IP32593; parameters: key: —: No effect (i.e. no significant difference between control [culture with no peptide] and culture with peptide); *: ~1 log effect (i.e. culture with peptide that's growth was ~1 log less than control); **: 1-2 log effect; ***: 2-4 log effect; ****: >4 log effect; “”: “Immediate effect” (i.e. loss of growth by at least 1 log compared to control immediately on addition of peptide [T = 0])
F. novicida U112 = system: F. novicida U112; parameters: key: —: No effect (i.e. no significant difference between control [culture with no peptide] and culture with peptide); *: ~1 log effect (i.e. culture with peptide that's growth was ~1 log less than control); **: 1-2 log effect; ***: 2-4 log effect; ****: >4 log effect; “”: “Immediate effect” (i.e. loss of growth by at least 1 log compared to control immediately on addition of peptide [T = 0])
F. tularensis LVS = system: F. tularensis LVS; parameters: key: —: No effect (i.e. no significant difference between control [culture with no peptide] and culture with peptide); *: ~1 log effect (i.e. culture with peptide that's growth was ~1 log less than control); **: 1-2 log effect; ***: 2-4 log effect; ****: >4 log effect; “”: “Immediate effect” (i.e. loss of growth by at least 1 log compared to control immediately on addition of peptide [T = 0])
S. aureus ATCC29213 = assay: Viable count (CFU/ml) time-kill assay of peptides with bacteria; conditions: 102 μg/ml peptide, 37° C., growth versus PBS control

## GIGKFLHSAKKFGKAFVGEIMNS [Magainin II]
B. thailandensis E264
  Effect of peptides after 4 hours incubation with bacteria: B. thailandensis E264: —
[1]
  Effect of peptides after 4 hours incubation with bacteria: Y. pseudotuberculosis IP32593: —
F. novicida U112
  Effect of peptides after 4 hours incubation with bacteria: F. novicida U112: —
F. tularensis LVS
  Effect of peptides after 4 hours incubation with bacteria: F. tularensis LVS: —
S. aureus ATCC29213
  Effect of peptides after 4 hours incubation with bacteria: S. aureus ATCC29213: **** (>4 log effect)
